In patent US20210038668A1, “TRADITIONAL CHINESE MEDICINE COMPOSITION FOR PREVENTING AND/OR TREATING ISCHEMIC REPERFUSION INJURY” (TASLY PHARMACEUTICAL GROUP CO., LTD., priority 2018, published 2021):

Tests used:
Assay type in all cases: in vivo, C57BL/6 mice
[1] = system: blood flow of cerebral cortex; assay: Cerebral blood flow by Laser Doppler Flowmetry
Method: (§1) Mice were anesthetized via intraperitoneal injection by pentobarbital sodium (2%, 45 mg/kg), and neck kin was sterilized. A median incision was cut on the neck, exposed and isolated to obtain arteria carotis communis; a waterproof cushion was used to isolate arteria carotis communis with the length of about 2.5-3 mm from surrounding tissues. The isolated arteria carotis communis was wrapped by a filter paper soaked by 10% FeCl3 for about 1 mm (width), and the filter paper was removed 3 minutes later, the outside of blood vessel was washed by 0.9% normal saline. The waterproof cushion was removed. The neck incision was sutured. The start of Fe3+ stimulation was defined as the beginning of ischemia, and those mice meeting the following conditions were selected into the group: the blood vessel was blocked at the maximum diameter of the neck thrombus 10 minutes after ischemia; the blood flow of the carotid artery distal end was less than 20% of the base value 15 minutes after ischemia; and the thrombus was stable 4.5 hours after ischemia (before reperfusion); the carotid artery vessel at 60% and more of the diameter was blocked by the maximum diameter of the thrombus.
(§2) Mice were treated by medicaments or normal saline according to random grouping results 4.5 hours after ischemia. Mice femoral vein was intubated, and left femoral vein was injected tPA (tissue plasminogen activator) or normal saline; right femoral vein was injected the traditional Chinese medicinal composition of the present invention or normal saline; 10% of the total dose was injected via an injection pump, and the rest 90% were continuously injected intravenously for 1 hour with the rate of 0.1 ml/h. Three proportion groups were selected to the traditional Chinese medicinal composition of the present invention respectively below:
A computer-linked Laser Doppler Flowmetry was used to measure the blood flow of cerebral cortex in the dominant region of bilateral middle cerebral arteries. Anesthetized mice were placed on a board in supine position; skin on the parietal bone of both sides was cut to fully expose the parietal bone; a computer-linked low-energy He—Ne laser probe was placed away 16-18 cm on the parietal bone to detect the blood flow of pia mater in the blood supply region of bilateral middle cerebral arteries of mice before ischemia (namely, a base value), 10 minutes after ischemia, 4.5 hours after ischemia (namely, before reperfusion), 1 hour after reperfusion, 2 hours after reperfusion and 24 hours after reperfusion. A cerebral blood flow analysis software LDPIwin 3.1 (PeriScan PIM3 System, PERIMED, Stockholm, Sweden) was used to calculate the blood flow of cerebral cortex in the same region dominated by bilateral MCA.

[2] = system: mice with carotid artery thrombus; assay: Survival rate within 24 hours after administration; settings: tPA 10 mg/kg alone
Method: as §1, §2
The survival rate, neurological scoring, change of carotid artery ischemia size and change of cerebral blood flow perfusion of mice after reperfused for 24 hours were recorded; and the optimal drug concentration was selected for further analysis.

[3] = system: Bax; assay: Western blotting of Bax in brain tissue; settings: brain tissue 24 h after administration, sham = 1.00; tPA 10 mg/kg alone or + T541 20 mg/kg or ingredients at Table 7 doses
Source text: To compare the therapeutical effect on reperfusion injury caused by tPA thrombolysis between the traditional Chinese medicinal composition of the present invention and each ingredient (total saponins of Astragalus, the experiment was divided into the following group (tPA is combined with T541, individual ingredient thereof and compatibility of any two ingredients) specifically as follows: tPA+total saponins of Astragalus (tPA+HQ), tPA+ salvianolic acids (tPA+DS), tPA+Panax notoginseng saponins (tPA+SQ), tPA+ total saponins of Astragalus+salvianolic acids (tPA+HQ+DS), tPA+ total saponins of Astragalus+Panax notoginseng saponins (tPA+HQ+SQ), tPA+ salvianolic acids+Panax notoginseng saponins (tPA+DS+SQ) and tPA+T541. Normal saline served as an isovolumetric control. The usage number in each group is 6.
After reperfused for 24 hours, mice were perfused by normal saline; Western blotting analysis was conducted to the penumbra field of infarcted right cerebral cortex. […] Excessive supernatant was taken out and quantified by a BCA protein quantification liquor (ThermoScientific, US) to measure absorbance value at 560 nm of ELIASA and to calculate the protein concentration according to a standard curve. […] The density of electrophoretic strips was analyzed by an image analysis software Quantityone. […]

[4] = before administration, groups: tPA 10 mg/kg alone, T541 20 mg/kg, T141 12 mg/kg, T582 15 mg/kg each + tPA 10 mg/kg
[5] = iv, tPA 10 mg/kg alone, T541 20 mg/kg, T141 12 mg/kg, T582 15 mg/kg each + tPA 10 mg/kg
[6] = T141 12 mg/kg, T582 15 mg/kg each + tPA 10 mg/kg
[7] = T541 20 mg/kg, T141 12 mg/kg, T582 15 mg/kg each + tPA 10 mg/kg

Substance: tPA: tissue-type plasminogen activator (tPA) for thrombolysis
- Cerebral blood flow, 10 minutes after FeCl3 simulation [1, 4]: 55.20 ± 5.69
- Cerebral blood flow, Before FeCl3 simulation [1, 4]: 100.25 ± 1.19
- recovery of brain blood flow (in words) ([1]; high-dose T541 or tPA simply given, T141, T582 with tPA): no obvious recovery of the brain blood flow
- Cerebral blood flow, 5.5 hours after FeCl3 simulation (1 hour after administration) [1, 5]: 47.56 ± 6.13
- Cerebral blood flow, 6.5 hours after FeCl3 simulation (2 hours after administration) [1, 5]: 41.46 ± 4.49
- Cerebral blood flow, 28.5 hours after FeCl3 simulation (24 hours after administration) [1, 5]: 42.40 ± 4.61
- Cerebral blood flow, 4.5 hours after FeCl3 simulation ([1]; start of administration, groups: tPA 10 mg/kg alone, T541 20 mg/kg, T141 12 mg/kg, T582 15 mg/kg each + tPA 10 mg/kg): 49.58 ± 7.44
- survival rate (%), 6 h after administration [2, 6]: 70.00%
- survival rate (%), 12 h after administration [2, 6]: 60.00%
- survival rate (%), 18 h after administration ([2]; T541 20 mg/kg + tPA 10 mg/kg): 50.00%
- survival rate (%), 0 h after administration [2, 7]: 100.00%
- survival rate (%), 24 h after administration [2, 7]: 50%
- Bax [3]: 5.52 ± 0.78
- Bax/Bcl-2 [3]: 3.82 ± 0.57
